Results as given in patent publication US10669269B2, “Substituted N-(1H-indazol-4-yl)imidazo[1,2-a]pyridine-3-carboxamide compounds as type III receptor tyrosine kinase inhibitors” (ARRAY BIOPHARMA INC., priority 2010, dated 2020).
pIC50: −log10 of the molar value.

Experiments:
PDGFR beta = target: T1, PDGFR beta (Homo sapiens, UniProt P09619); experiment: Phospho PDGFR LICOR Cell Assay (Example B); format: cell-based; details: averaged IC50; PDGFR beta phosphorylation in HS27 human fibroblast cell line, PDGF-BB stimulation 10 minutes, normalized to total ERK
T1 construct: endogenous in cells; host or cells: HS27 human fibroblast cell line
Outline: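 Read-out is in-cell phospho-PDGFRβ/total-ERK infrared immunofluorescence in HS27 fibroblasts. Cells got 1 h compound exposure before a 10 min PDGF-BB challenge. A 4-parameter logistic fit gave IC50 as the concentration yielding 50 percent of control.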

cFMS = target: T2, cFMS (Homo sapiens, UniProt P07333); experiment: cFMS Cell-Based Assay (Example C); details: averaged IC50; phospho-cFMS in THP-1 cells stimulated with 250 ng/mL recombinant human MCSF; read-out: cFMS Cell ELISA IC50
T2 construct: THP-1 cells (human acute monocytic leukemia cell line) were serum-starved for 4 hours; endogenous in cells; host or cells: THP-1 cells (human acute monocytic leukemia cell line)
Outline: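 Phosphotyrosine on cFMS, captured from lysates and quantified by ELISA, reads receptor activation after 1 min of 250 ng/mL human MCSF. Beforehand, THP-1 cells were serum-starved for 4 h and exposed to compound for 1 h (9 points, 3-fold, typically up to 5,000 nM). IC50 from a 4-parameter logistic fit as 50 percent of control.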

c-KIT = target: T3, c-KIT (Homo sapiens, UniProt P10721); experiment: c-KIT Cell-Based Assay (Example D); details: averaged IC50; phospho-c-KIT in M-07e cells stimulated with 150 ng/ml recombinant human SCF; read-out: cKIT Cell ELISA IC50
T3 construct: M-07e cells (human acute megakaryoblastic leukemia cell line) were serum-starved for 4 hours; endogenous in cells; host or cells: M-07e cells (human acute megakaryoblastic leukemia cell line)
Outline: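 Phospho-c-KIT ELISA readout, calibrated with purified phospho-SCF R, gave IC50 (4-parameter fit, 50% of control). Before lysis, M-07e cells were starved 4 h, exposed 1 h to a 9-point 3-fold series (highest usually 5,000 nM), and stimulated with 150 ng/ml SCF for 4 min.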

T3 sequence (P10721 26-976): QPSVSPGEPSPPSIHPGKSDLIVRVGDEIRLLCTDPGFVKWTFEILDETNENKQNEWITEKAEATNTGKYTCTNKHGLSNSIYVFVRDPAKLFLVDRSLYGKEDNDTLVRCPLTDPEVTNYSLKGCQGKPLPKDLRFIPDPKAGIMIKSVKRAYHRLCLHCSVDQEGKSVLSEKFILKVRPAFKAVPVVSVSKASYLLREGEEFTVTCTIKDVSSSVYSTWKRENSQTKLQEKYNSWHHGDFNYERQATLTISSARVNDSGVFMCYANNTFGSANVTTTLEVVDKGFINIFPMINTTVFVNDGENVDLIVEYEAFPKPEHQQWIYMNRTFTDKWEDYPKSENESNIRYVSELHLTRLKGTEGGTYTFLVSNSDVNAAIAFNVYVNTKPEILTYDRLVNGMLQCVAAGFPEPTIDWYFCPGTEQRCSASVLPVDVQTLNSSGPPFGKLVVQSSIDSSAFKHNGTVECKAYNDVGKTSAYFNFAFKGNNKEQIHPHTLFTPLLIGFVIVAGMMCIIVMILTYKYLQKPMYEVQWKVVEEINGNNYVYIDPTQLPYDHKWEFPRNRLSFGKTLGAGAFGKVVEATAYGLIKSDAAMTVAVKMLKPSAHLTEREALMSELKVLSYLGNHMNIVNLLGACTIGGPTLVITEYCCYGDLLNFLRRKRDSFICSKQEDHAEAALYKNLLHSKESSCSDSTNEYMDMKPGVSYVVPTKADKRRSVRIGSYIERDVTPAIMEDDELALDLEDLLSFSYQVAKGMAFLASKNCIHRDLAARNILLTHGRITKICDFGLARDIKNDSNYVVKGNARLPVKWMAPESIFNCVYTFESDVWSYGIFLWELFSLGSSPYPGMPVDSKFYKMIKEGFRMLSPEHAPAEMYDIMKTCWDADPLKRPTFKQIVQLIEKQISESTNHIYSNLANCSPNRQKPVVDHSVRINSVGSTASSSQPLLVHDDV
T1 sequence (P09619 33-1106): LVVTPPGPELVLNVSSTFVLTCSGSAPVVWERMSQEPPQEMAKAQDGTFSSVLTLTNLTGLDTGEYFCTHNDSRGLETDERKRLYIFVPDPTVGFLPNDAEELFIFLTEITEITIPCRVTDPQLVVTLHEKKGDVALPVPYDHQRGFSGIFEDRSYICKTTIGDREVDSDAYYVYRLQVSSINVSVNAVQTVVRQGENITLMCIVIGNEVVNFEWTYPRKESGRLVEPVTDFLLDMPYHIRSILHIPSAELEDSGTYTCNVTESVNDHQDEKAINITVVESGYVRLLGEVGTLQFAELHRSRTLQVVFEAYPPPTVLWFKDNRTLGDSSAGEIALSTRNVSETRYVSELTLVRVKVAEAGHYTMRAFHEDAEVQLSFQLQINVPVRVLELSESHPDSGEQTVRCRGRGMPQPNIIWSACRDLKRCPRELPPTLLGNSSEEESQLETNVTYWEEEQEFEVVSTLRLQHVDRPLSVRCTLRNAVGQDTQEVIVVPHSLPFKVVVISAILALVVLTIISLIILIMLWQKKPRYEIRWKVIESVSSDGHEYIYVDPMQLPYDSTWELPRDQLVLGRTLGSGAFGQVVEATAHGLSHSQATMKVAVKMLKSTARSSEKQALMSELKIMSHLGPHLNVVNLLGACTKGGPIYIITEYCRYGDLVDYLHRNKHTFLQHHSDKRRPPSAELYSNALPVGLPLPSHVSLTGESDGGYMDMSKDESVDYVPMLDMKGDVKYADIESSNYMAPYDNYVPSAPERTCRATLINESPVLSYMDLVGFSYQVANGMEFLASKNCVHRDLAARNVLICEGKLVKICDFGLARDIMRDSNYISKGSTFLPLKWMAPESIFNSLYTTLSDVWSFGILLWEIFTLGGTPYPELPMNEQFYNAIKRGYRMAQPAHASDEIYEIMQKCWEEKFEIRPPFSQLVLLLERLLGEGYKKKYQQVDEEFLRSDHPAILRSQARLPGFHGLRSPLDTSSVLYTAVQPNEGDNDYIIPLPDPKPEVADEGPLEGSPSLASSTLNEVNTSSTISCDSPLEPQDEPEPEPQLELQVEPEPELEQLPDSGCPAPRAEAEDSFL
T2 sequence (P07333 20-972): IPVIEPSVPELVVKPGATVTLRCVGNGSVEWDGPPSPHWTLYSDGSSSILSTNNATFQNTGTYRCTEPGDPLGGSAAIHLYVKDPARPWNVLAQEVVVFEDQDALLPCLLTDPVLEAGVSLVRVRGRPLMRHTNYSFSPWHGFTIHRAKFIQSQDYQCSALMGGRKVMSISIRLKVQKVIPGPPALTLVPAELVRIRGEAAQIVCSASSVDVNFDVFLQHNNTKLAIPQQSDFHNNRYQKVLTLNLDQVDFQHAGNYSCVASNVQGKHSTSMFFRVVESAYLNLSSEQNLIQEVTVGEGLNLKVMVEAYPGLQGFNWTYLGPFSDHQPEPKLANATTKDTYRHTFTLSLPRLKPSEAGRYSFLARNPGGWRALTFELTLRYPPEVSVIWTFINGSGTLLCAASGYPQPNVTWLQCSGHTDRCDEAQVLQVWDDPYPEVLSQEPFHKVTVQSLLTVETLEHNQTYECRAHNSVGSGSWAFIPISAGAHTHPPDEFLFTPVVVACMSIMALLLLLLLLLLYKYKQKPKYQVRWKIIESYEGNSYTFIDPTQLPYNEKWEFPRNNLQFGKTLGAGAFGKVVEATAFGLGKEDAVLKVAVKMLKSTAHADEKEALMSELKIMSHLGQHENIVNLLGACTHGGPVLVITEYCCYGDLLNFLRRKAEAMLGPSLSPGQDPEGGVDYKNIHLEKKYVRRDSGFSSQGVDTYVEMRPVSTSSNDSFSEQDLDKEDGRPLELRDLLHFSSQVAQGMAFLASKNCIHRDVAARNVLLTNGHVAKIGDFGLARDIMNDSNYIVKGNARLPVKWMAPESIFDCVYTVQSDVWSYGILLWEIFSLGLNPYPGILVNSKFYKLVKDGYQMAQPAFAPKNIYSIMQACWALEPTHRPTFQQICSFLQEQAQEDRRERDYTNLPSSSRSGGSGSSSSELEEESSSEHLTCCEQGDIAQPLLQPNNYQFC

Row | pIC50 (PDGFR beta) | pIC50 (cFMS) | pIC50 (c-KIT) | Structure (SMILES)
1 | 6.40 | 7.14 | 7.03 | CC(O)c1ccn2c(C(=O)Nc3cccc4c3cnn4Cc3ccccc3)cnc2c1 (stereo not drawn) [Example 147, N-(1-benzyl-1H-indazol-4-yl)-7-(1-hydroxyethyl)imidazo[1,2-a]pyridine-3-carboxamide]
2 | 6.00 | 7.03 | 6.72 | CC(c1ccn2c(C(=O)Nc3cccc4c3cnn4Cc3ccccc3)cnc2c1)N1CCOCC1 (stereo not drawn) [Example 148, N-(1-benzyl-1H-indazol-4-yl)-7-(1-morpholinoethyl)imidazo[1,2-a]pyridine-3-carboxamide]
3 | 8.77 | 8.34 | 7.84 | Cc1cccc(Cn2ncc3c(NC(=O)c4cnc5cc(OCCN6CCN(C)CC6)ccn45)cccc32)n1 [Example 150, 7-(2-(4-methylpiperazin-1-yl)ethoxy)-N-(1-((6-methylpyridin-2-yl)methyl)-1H-indazol-4-yl)imidazo[1,2-a]pyridine-3-carboxamide]
4 | 8.24 | 8.24 | 7.90 | COCCOc1ccn2c(C(=O)Nc3cccc4c3cnn4Cc3ccccc3)cnc2c1 [Example 156, N-(1-benzyl-1H-indazol-4-yl)-7-(2-methoxyethoxy)imidazo[1,2-a]pyridine-3-carboxamide]

More lines, now with the values behind:

Row | Structure (SMILES) | pIC50 (PDGFR beta) | pIC50 (cFMS) | pIC50 (c-KIT)
5 | Cc1ncc(Cn2ncc3c(NC(=O)c4cnc5cc(OCCN6CCN(C)CC6)ccn45)cccc32)s1 [Example 149, 7-(2-(4-methylpiperazin-1-yl)ethoxy)-N-(1-((2-methylthiazol-5-yl)methyl)-1H-indazol-4-yl)imidazo[1,2-a]pyridine-3-carboxamide] | 9.00 | 8.66 | 8.32
6 | COCCOc1ccn2c(C(=O)Nc3cccc4c3cnn4CCc3ccccc3)cnc2c1 [Example 151, 7-(2-methoxyethoxy)-N-(1-phenethyl-1H-indazol-4-yl)imidazo[1,2-a]pyridine-3-carboxamide] | 8.05 | 7.35 | 7.43
7 | N#Cc1ccn2c(C(=O)Nc3cccc4c3cnn4Cc3ccccc3)cnc2c1 [Example 152, N-(1-benzyl-1H-indazol-4-yl)-7-cyanoimidazo[1,2-a]pyridine-3-carboxamide] | 6.53 | 6.93 | 6.78
8 | CN1CCN(CCOc2ccn3c(C(=O)Nc4cccc5c4cnn5Cc4ccccc4)cnc3c2)CC1 [Example 153, N-(1-benzyl-1H-indazol-4-yl)-7-(2-(4-methylpiperazin-1-yl)ethoxy)imidazo[1,2-a]pyridine-3-carboxamide] | 8.30 | 7.83 | 8.02
9 | N#Cc1ccc2ncc(C(=O)Nc3cccc4c3cnn4Cc3ccccc3)n2c1 [Example 154, N-(1-benzyl-1H-indazol-4-yl)-6-cyanoimidazo[1,2-a]pyridine-3-carboxamide] | 6.73 | 6.85 | 6.82
10 | O=C(Nc1cccc2c1cnn2Cc1ccccc1)c1cnc2ccc(C(O)CO)cn12 (stereo not drawn) [Example 158, N-(1-benzyl-1H-indazol-4-yl)-6-(1,2-dihydroxyethyl)imidazo[1,2-a]pyridine-3-carboxamide] | 5.62 | 6.27 | 5.68
11 | COc1ccc2ncc(C(=O)Nc3cccc4c3cnn4Cc3ccccc3)n2c1 [Example 159, N-(1-benzyl-1H-indazol-4-yl)-6-methoxyimidazo[1,2-a]pyridine-3-carboxamide] | 7.19 | 7.58 | 8.01
12 | NC(=O)c1ccc2ncc(C(=O)Nc3cccc4c3cnn4Cc3ccccc3)n2c1 [Example 160, N3-(1-benzyl-1H-indazol-4-yl)imidazo[1,2-a]pyridine-3,6-dicarboxamide] | 6.15 | 6.88 | 6.06
